Test results as given in ChEMBL document CHEMBL1148043, “Alectosarmentin, a new antimicrobial dibenzofuranoid lactol from the lichen, Alectoria sarmentosa” (1994).
Activity calls are given as the source filed them. No cut-off for these calls is given here.

Experiments:
[1] = system: Staphylococcus aureus; experiment: Antimicrobial activity against Staphylococcus aureus ATCC 13709 by agar-dilution streak method; type: functional
[2] = system: Candida albicans; experiment: Antimicrobial activity against Candida albicans ATCC 10231 by agar-dilution streak method; type: functional
[3] = system: Escherichia coli; experiment: Antimicrobial activity against Escherichia coli ATCC 9637 at 100 ug/ml by agar-dilution streak method; type: functional, organism-based
[4] = system: Klebsiella pneumoniae; experiment: Antimicrobial activity against Klebsiella pneumoniae ATCC 10031 at 100 ug/ml by agar-dilution streak method; type: functional, organism-based
[5] = system: Salmonella enterica subsp. enterica serovar Gallinarum; experiment: Antimicrobial activity against Salmonella gallinarum ATCC 9184 at 100 ug/ml by agar-dilution streak method; type: functional, organism-based
[6] = system: Mycolicibacterium smegmatis; experiment: Antimicrobial activity against Mycobacterium smegmatis ATCC 607 by agar-dilution streak method; type: functional
[7] = system: Pseudomonas aeruginosa; experiment: Antimicrobial activity against Pseudomonas aeruginosa ATCC 27853 at 100 ug/ml by agar-dilution streak method; type: functional, organism-based
[8] = system: Candida albicans; experiment: Antimicrobial activity against Candida albicans ATCC 10231 at 100 ug/ml by agar-dilution streak method; type: functional, organism-based
[9] = system: Escherichia coli; experiment: Antimicrobial activity against Escherichia coli ATCC 9637 by agar-dilution streak method; type: functional
[10] = system: Salmonella enterica subsp. enterica serovar Gallinarum; experiment: Antimicrobial activity against Salmonella gallinarum ATCC 9184 by agar-dilution streak method; type: functional
[11] = system: Klebsiella pneumoniae; experiment: Antimicrobial activity against Klebsiella pneumoniae ATCC 10031 by agar-dilution streak method; type: functional

Compound | Activity [1] | Activity [2] | Activity [3] | Activity [4] | Activity [5] | Activity [6] | Activity [7] | Activity [8] | Activity [9] | Activity [10] | Activity [11]
CCCCCc1cc2cc(O)cc(Oc3c(O)cc(O)c4c3CC(CCCCC)(OCC)OC4=O)c2c(=O)o1 (stereo not given) | 50 µg/mL | 100 µg/mL | inactive | inactive | inactive | 50 µg/mL | inactive |  |  |  | 
CC(=O)C1=C(O)C=C2Oc3c(C(C)=O)c(O)c(C)c(O)c3[C@]2(C)C1=O [(-)-USNIC ACID] | 25 µg/mL | 50 µg/mL | inactive | inactive | inactive | 6.25 µg/mL | inactive |  |  |  | 
Cc1cc(O)cc2oc3cc(O)c4c(c3c12)C(O)OC4=O (stereo not given) [ALECTOSARMENTIN] | 25 µg/mL |  | inactive | inactive | inactive | 25 µg/mL | inactive | inactive |  |  | 
CCCCCC(=O)Cc1cc(O)cc2c1C(=O)Oc1cc(O)c(C(=O)O)c(CCCCC)c1O2 [PHYSODIC ACID] | 25 µg/mL |  | inactive | inactive | inactive | 100 µg/mL | inactive | inactive |  |  | 
CN[C@@H]1[C@H](O[C@H]2[C@H](O[C@H]3[C@H](O)[C@@H](O)[C@H](N=C(N)N)[C@@H](O)[C@@H]3N=C(N)N)O[C@@H](C)[C@]2(O)C=O)O[C@@H](CO)[C@H](O)[C@H]1O.CN[C@@H]1[C@H](O[C@H]2[C@H](O[C@H]3[C@H](O)[C@@H](O)[C@H](N=C(N)N)[C@@H](O)[C@@H]3N=C(N)N)O[C@@H](C)[C@]2(O)C=O)O[C@@H](CO)[C@H](O)[C@H]1O.O=S(=O)(O)O.O=S(=O)(O)O.O=S(=O)(O)O [STREPTOMYCIN SULFATE] | 5 µg/mL |  |  |  |  | 1.25 µg/mL | inactive | inactive | 5 µg/mL | 50 µg/mL | 2.5 µg/mL
